Measured values taken from PubChem BioAssay AID1963438 (Molecular Pharmacology Branch, DTP, NCI, 2024).
“And” between values parts separate entries of the source, which are not always exact repeats. Equal values may be shown once.

System: NCI-H510 multicellular tumor spheroid growth, % test/control
Assay: Anticancer human tumor NCI-H510 cell line growth inhibition [Asc];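 also: spheroids exposed to agents for 7 days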;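 as to viability, T/C: 100% = DMSO vehicle control wells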
Settings: for viability, T/C: stronger effect = lower value
In short: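 Spheroid model: tumor line + HUVEC + hMSC. Single agents and combinations; top conc. at/near clinical Cmax (10 microM if undetermined), half-log dilutions. DMSO stocks at 800-fold test concentration.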

[1] = curve of first compound, second compound 0.03 µM
[2] = curve of first compound, second compound 0.0949 µM
[3] = curve of first compound, second compound 0.3 µM
[4] = curve of first compound, second compound 0.949 µM
[5] = curve of first compound, second compound 3 µM
[6] = second compound 0.03 µM, first compound 0.0316 µM
[7] = second compound 0.03 µM, first compound 0.1 µM
[8] = second compound 0.03 µM, first compound 0.316 µM
[9] = second compound 0.03 µM, first compound 1 µM
[10] = second compound 0.0949 µM, first compound 0.0316 µM
[11] = second compound 0.0949 µM, first compound 0.1 µM
[12] = second compound 0.0949 µM, first compound 0.316 µM
[13] = second compound 0.0949 µM, first compound 1 µM
[14] = second compound 0.3 µM, first compound 0.0316 µM
[15] = second compound 0.3 µM, first compound 0.1 µM
[16] = second compound 0.3 µM, first compound 0.316 µM
[17] = second compound 0.3 µM, first compound 1 µM
[18] = second compound 0.949 µM, first compound 0.0316 µM
[19] = second compound 0.949 µM, first compound 0.1 µM
[20] = second compound 0.949 µM, first compound 0.316 µM
[21] = second compound 0.949 µM, first compound 1 µM
[22] = second compound 3 µM, first compound 0.0316 µM
[23] = second compound 3 µM, first compound 0.1 µM
[24] = second compound 3 µM, first compound 0.316 µM
[25] = second compound 3 µM, first compound 1 µM
[26] = second compound 0.03 µM, first compound 0.00316 µM
[27] = second compound 0.03 µM, first compound 0.01 µM
[28] = second compound 0.0949 µM, first compound 0.00316 µM
[29] = second compound 0.0949 µM, first compound 0.01 µM
[30] = second compound 0.3 µM, first compound 0.00316 µM
[31] = second compound 0.3 µM, first compound 0.01 µM
[32] = second compound 0.949 µM, first compound 0.00316 µM
[33] = second compound 0.949 µM, first compound 0.01 µM
[34] = second compound 3 µM, first compound 0.00316 µM
[35] = second compound 3 µM, first compound 0.01 µM

With `C=CC(=O)N1CCN(c2nc(=O)n(-c3c(C)ccnc3C(C)C)c3nc(-c4c(O)cccc4F)c(F)cc23)C(C)C1` (configuration not stated) + CCN1C(C(=O)NC23CCC(C(=O)O)(CC2)CC3)C(c2cccc(Cl)c2F)C2(C(=O)Nc3cc(Cl)ccc32)C12CCCCC2 the IC50 [1] was greater than 10000 nM, the IC50 [2] was greater than 10000 nM and the IC50 [3] was greater than 10000 nM. For the same compound, the IC50 [4] was greater than 10000 nM, the IC50 [5] was greater than 10000 nM and the viability, T/C [6] was 70.7%. It also gave a viability, T/C [7] of 108%, a viability, T/C [8] of 81% and a viability, T/C [9] of 100%. For the same compound, the viability, T/C (second compound 0.03 µM, first compound 3.16 µM) was 90.2%, the viability, T/C (second compound 0.03 µM, first compound 10 µM) was 98.3% and the viability, T/C [10] was 117%. It also gave a viability, T/C [11] of 117%, a viability, T/C [12] of 98.5% and a viability, T/C [13] of 105%. For the same compound, the viability, T/C (second compound 0.0949 µM, first compound 3.16 µM) was 96.8%, the viability, T/C (second compound 0.0949 µM, first compound 10 µM) was 89.5% and the viability, T/C [14] was 90.3%. It also gave a viability, T/C [15] of 103%, a viability, T/C [16] of 91.5% and a viability, T/C [17] of 101%. For the same compound, the viability, T/C (second compound 0.3 µM, first compound 3.16 µM) was 98.4%, the viability, T/C (second compound 0.3 µM, first compound 10 µM) was 95.6% and the viability, T/C [18] was 100%. It also gave a viability, T/C [19] of 107%, a viability, T/C [20] of 109% and a viability, T/C [21] of 104%. For the same compound, the viability, T/C (second compound 0.949 µM, first compound 3.16 µM) was 91.3%, the viability, T/C (second compound 0.949 µM, first compound 10 µM) was 92.4% and the viability, T/C [22] was 116%. It also gave a viability, T/C [23] of 97.8%, a viability, T/C [24] of 85.3% and a viability, T/C [25] of 101%. The viability, T/C (second compound 3 µM, first compound 3.16 µM) was 103% and the viability, T/C (second compound 3 µM, first compound 10 µM) was 79.2%.
In the case of `C=C(F)C(=O)N1CCN(c2nc(OCC3CCCN3C)nc3c2CCN(c2cccc4cccc(Cl)c24)C3)CC1CC#N` (configuration not stated), the viability, T/C (compound 0.0316 µM) is reported as 109% and 85.9% and 108%, the viability, T/C (compound 0.1 µM) is reported as 87.2% and 84.2% and 92% and the viability, T/C (compound 0.316 µM) is reported as 72.8% and 84.8% and 97.8%. For the same compound, the viability, T/C (compound 1 µM) was 67.5% and 68.6% and 102%, the viability, T/C (compound 3.16 µM) was 1.87% and 8.13% and 16.5% and the viability, T/C (compound 10 µM) was 0.2% and 0.21% and 0.25%. The IC50 (curve of compound) was 1340 nM and 1420 nM and 1990 nM.
`COc1c(OCCCN2CCOCC2)ccc2c3n(c(=NC(=O)c4cnc(N)nc4)nc12)CCN3` + CCN1C(C(=O)NC23CCC(C(=O)O)(CC2)CC3)C(c2cccc(Cl)c2F)C2(C(=O)Nc3cc(Cl)ccc32)C12CCCCC2 gave an IC50 [1] greater than 1000 nM, an IC50 [2] greater than 1000 nM and an IC50 [3] greater than 1000 nM. For the same compound, the IC50 [4] was greater than 1000 nM, the IC50 [5] was greater than 1000 nM and the viability, T/C [26] was 94.2%. It also gave a viability, T/C [27] of 112%, a viability, T/C [6] of 96.4% and a viability, T/C [7] of 93.6%. The viability, T/C [8] was 70%, the viability, T/C [9] was 58.7% and the viability, T/C [28] was 94.3%. It also gave a viability, T/C [29] of 91%, a viability, T/C [10] of 98.4% and a viability, T/C [11] of 99.3%. The viability, T/C [12] was 92.5%, the viability, T/C [13] was 65.6% and the viability, T/C [30] was 92.3%. For the same compound, the viability, T/C [31] was 101%, the viability, T/C [14] was 105% and the viability, T/C [15] was 105%. For the same compound, the viability, T/C [16] was 95.6%, the viability, T/C [17] was 51.2% and the viability, T/C [32] was 80.6%. The viability, T/C [33] was 99.5%, the viability, T/C [18] was 114% and the viability, T/C [19] was 104%. The viability, T/C [20] was 62%, the viability, T/C [21] was 80.4% and the viability, T/C [34] was 112%. It also gave a viability, T/C [35] of 105%, a viability, T/C [22] of 73.9% and a viability, T/C [23] of 85%. It also gave a viability, T/C [24] of 86.5% and a viability, T/C [25] of 83.3%.
Compound `NC(=O)C(=Cn1cnc(-c2cc(C(F)(F)F)cc(C(F)(F)F)c2)n1)c1cncnc1` + CCN1C(C(=O)NC23CCC(C(=O)O)(CC2)CC3)C(c2cccc(Cl)c2F)C2(C(=O)Nc3cc(Cl)ccc32)C12CCCCC2 has an IC50 [1] of 165 nM, an IC50 [2] of 183 nM and an IC50 [3] of 138 nM. It also gave an IC50 [4] of 180 nM, an IC50 [5] of 54.3 nM and a viability, T/C (second compound 0.03 µM, first compound 0.000949 µM) of 113%. The viability, T/C (second compound 0.03 µM, first compound 0.003 µM) was 89.3%, the viability, T/C (second compound 0.03 µM, first compound 0.00949 µM) was 84.8% and the viability, T/C (second compound 0.03 µM, first compound 0.03 µM) was 106%. It also gave a viability, T/C (second compound 0.03 µM, first compound 0.0949 µM) of 56.9%, a viability, T/C (second compound 0.03 µM, first compound 0.3 µM) of 42.4% and a viability, T/C (second compound 0.0949 µM, first compound 0.000949 µM) of 88.4%. It also gave a viability, T/C (second compound 0.0949 µM, first compound 0.003 µM) of 121%, a viability, T/C (second compound 0.0949 µM, first compound 0.00949 µM) of 89.2% and a viability, T/C (second compound 0.0949 µM, first compound 0.03 µM) of 95.1%. The viability, T/C (second compound 0.0949 µM, first compound 0.0949 µM) was 65%, the viability, T/C (second compound 0.0949 µM, first compound 0.3 µM) was 38.6% and the viability, T/C (second compound 0.3 µM, first compound 0.000949 µM) was 80.7%. The viability, T/C (second compound 0.3 µM, first compound 0.003 µM) was 94.9%, the viability, T/C (second compound 0.3 µM, first compound 0.00949 µM) was 93.9% and the viability, T/C (second compound 0.3 µM, first compound 0.03 µM) was 87.3%. The viability, T/C (second compound 0.3 µM, first compound 0.0949 µM) was 58.4%, the viability, T/C (second compound 0.3 µM, first compound 0.3 µM) was 32.4% and the viability, T/C (second compound 0.949 µM, first compound 0.000949 µM) was 106%. It also gave a viability, T/C (second compound 0.949 µM, first compound 0.003 µM) of 87.1%, a viability, T/C (second compound 0.949 µM, first compound 0.00949 µM) of 99.3% and a viability, T/C (second compound 0.949 µM, first compound 0.03 µM) of 79.9%. It also gave a viability, T/C (second compound 0.949 µM, first compound 0.0949 µM) of 93.5%, a viability, T/C (second compound 0.949 µM, first compound 0.3 µM) of 15.3% and a viability, T/C (second compound 3 µM, first compound 0.000949 µM) of 90.1%. For the same compound, the viability, T/C (second compound 3 µM, first compound 0.003 µM) was 106%, the viability, T/C (second compound 3 µM, first compound 0.00949 µM) was 108% and the viability, T/C (second compound 3 µM, first compound 0.03 µM) was 84%. It also gave a viability, T/C (second compound 3 µM, first compound 0.0949 µM) of 18.3% and a viability, T/C (second compound 3 µM, first compound 0.3 µM) of 14.9%.
With `Cn1ncnc1[C@H]1c2n[nH]c(=O)c3cc(F)cc(c23)N[C@@H]1c1ccc(F)cc1` + CCN1C(C(=O)NC23CCC(C(=O)O)(CC2)CC3)C(c2cccc(Cl)c2F)C2(C(=O)Nc3cc(Cl)ccc32)C12CCCCC2 the IC50 [1] was 7.83 nM, the IC50 [2] was 9.02 nM and the IC50 [3] was 15.6 nM. The IC50 [4] was 10.4 nM, the IC50 [5] was 13.4 nM and the viability, T/C (second compound 0.03 µM, first compound 0.000316 µM) was 114%. It also gave a viability, T/C (second compound 0.03 µM, first compound 0.001 µM) of 93.8%, a viability, T/C [26] of 77.3% and a viability, T/C [27] of 49.5%. The viability, T/C [6] was 6.92%, the viability, T/C [7] was 18.1% and the viability, T/C (second compound 0.0949 µM, first compound 0.000316 µM) was 105%. For the same compound, the viability, T/C (second compound 0.0949 µM, first compound 0.001 µM) was 97.6%, the viability, T/C [28] was 95.4% and the viability, T/C [29] was 45.4%. For the same compound, the viability, T/C [10] was 14.7%, the viability, T/C [11] was 10.9% and the viability, T/C (second compound 0.3 µM, first compound 0.000316 µM) was 104%. It also gave a viability, T/C (second compound 0.3 µM, first compound 0.001 µM) of 128%, a viability, T/C [30] of 96.6% and a viability, T/C [31] of 75.8%. The viability, T/C [14] was 9.76%, the viability, T/C [15] was 5.7% and the viability, T/C (second compound 0.949 µM, first compound 0.000316 µM) was 92.5%. The viability, T/C (second compound 0.949 µM, first compound 0.001 µM) was 118%, the viability, T/C [32] was 100% and the viability, T/C [33] was 50.9%. It also gave a viability, T/C [18] of 13.4%, a viability, T/C [19] of 7.16% and a viability, T/C (second compound 3 µM, first compound 0.000316 µM) of 109%. For the same compound, the viability, T/C (second compound 3 µM, first compound 0.001 µM) was 88.8%, the viability, T/C [34] was 102% and the viability, T/C [35] was 64%. It also gave a viability, T/C [22] of 6.31% and a viability, T/C [23] of 10.2%.
